Measurements from PMC2994747, “Molecular Characterization of c-Abl/c-Src Kinase Inhibitors Targeted against Murine Tumour Progenitor Cells that Express Stem Cell Markers” (PLoS ONE, 2010).

Key:
GammaA3 = assay: Whole genome expression analysis (Affymetrix microarray); assay type: cell-based, mouse
Experimental: (§1) The cells were harvested and RNA was isolated using RNeasy Mini Kit (Qiagen, Hilden, Germany) according to the instructions of the manufacturer. The isolated RNA (250 ng) was processed further using standard protocols as described recently with the exception of the 3′ IVT Express Kit (Affymetrix, High Wycombe, UK) that was utilized according to instructions. Quality control of cRNA was done with the Agilent 2100 Bioanalyzer (Agilent Tech according to manufacturer's protocols. Following fragmentation, cRNA of each sample was hybridized to Affymetrix GeneChip® Mouse Genome 430 2.0 or Human Genome U133 Plus 2.0 and scanned with an Affymetrix 3000 7G scanner.
(§2) The resultant data was normalized by Probe Logarithmic Intensity Error Estimation (PLIER) algorithm. Statistical analysis was carried out with the ArrayTrack software (National Center for Toxicological Research/FDA, Jefferson, AR, USA) using SAM algorithm.

A2C12 = assay: as above; assay type: cell-based, mouse
Experimental: as §1, §2

all tested cell lines = assay: Caspase-Glo 3/7 activity assay, all tested cell lines; assay type: cell-based; conditions: IC50 concentration, 24 h; vs vehicle
Experimental: According to instructions, Caspase-Glo® 3/7 assay (Promega GmbH, Mannheim, Germany) was used for monitoring caspase activity. Briefly, the same volume Caspase-Glo reagent as culture medium was added and incubated 1 h at room temperature. Luminescence was read with a Victor3 Wallac 1420 Multilabel counter (PerkinElmer, Rodgau, Germany). Background absorbance (medium only) was subtracted and the data given as percent of vehicle controls.

[1] = IC50 concentration, 96 h, SAM FDR<0.01, FC>2

With `Fc1ccccc1CNc1ncnc2c1cnn2CC(Cl)c1ccc(Br)cc1` (stereo not shown) [Si162] the “Cdc2 (cell division cycle 2 (Cdk1)) regulated gene, Si162 vs Ktr FC” value (GammaA3) was -2.12, the “Cdkn1a (cyclin-dependent kinase inhibitor 1A (p21Cip1)) regulated gene, Si162 vs Ktr FC” value (GammaA3) was 1.27 and the “Cdkn2b (cyclin-dependent kinase inhibitor 2B (p15)) regulated gene, Si162 vs Ktr FC” value (GammaA3) was 1.13. The “Cdkn3 (cyclin-dependent kinase inhibitor 3) regulated gene, Si162 vs Ktr FC” value (GammaA3) was -2.80, the “Cenpa (centromere protein A) regulated gene, Si162 vs Ktr FC” value (GammaA3) was -2.62 and the “Crk (v-crk sarcoma virus CT10 oncogene homolog (avian)) regulated gene, Si162 vs Ktr FC” value (GammaA3) was -2.00. For the same molecule, the “Ctnnb1 (catenin (cadherin-associated protein), beta 1, 88kDa) regulated gene, Si162 vs Ktr FC” value (GammaA3) was 1.94, the “Ctsb (cathepsin B) regulated gene, Si162 vs Ktr FC” value (GammaA3) was 1.20 and the “Cxcl12 (chemokine (C-X-C motif) ligand 12) regulated gene, Si162 vs Ktr FC” value (GammaA3) was -2.74. For the same molecule, the “Dgka (diacylglycerol kinase, alpha 80kDa) regulated gene, Si162 vs Ktr FC” value (GammaA3) was 2.90, the “Fas (Fas (TNF receptor superfamily, member 6)) regulated gene, Si162 vs Ktr FC” value (GammaA3) was 1.40 and the “Gadd45a (growth arrest and DNA-damage-inducible, alpha) regulated gene, Si162 vs Ktr FC” value (GammaA3) was 2.78. For the same molecule, the “Grb10 (growth factor receptor-bound protein 10) regulated gene, Si162 vs Ktr FC” value (GammaA3) was 3.65, the “Gsk3b (glycogen synthase kinase 3 beta) regulated gene, Si162 vs Ktr FC” value (GammaA3) was 1.12 and the “Itga6 (integrin, alpha 6) regulated gene, Si162 vs Ktr FC” value (GammaA3) was 4.04. The “Jakmip3 (janus kinase and microtubule interacting protein 3) regulated gene, Si162 vs Ktr FC” value (GammaA3) was 4.07, the “Lrdd (leucine-rich repeats and death domain containing (Pidd)) regulated gene, Si162 vs Ktr FC” value (GammaA3) was 1.03 and the “Mdm2 (Mdm2 p53 binding protein homolog (mouse)) regulated gene, Si162 vs Ktr FC” value (GammaA3) was 2.15. For the same molecule, the “Mmp3 (matrix metallopeptidase 3 (stromelysin 1, progelatinase)) regulated gene, Si162 vs Ktr FC” value (GammaA3) was 2.73, the “Mmp13 (matrix metallopeptidase 13 (collagenase 3)) regulated gene, Si162 vs Ktr FC” value (GammaA3) was 2.98 and the “Nfib (nuclear factor I/B) regulated gene, Si162 vs Ktr FC” value (GammaA3) was -1.23. For the same molecule, the “Notch3 (Notch homolog 3 (Drosophila)) regulated gene, Si162 vs Ktr FC” value (GammaA3) was 2.78, the “Ogn (osteoglycin) regulated gene, Si162 vs Ktr FC” value (GammaA3) was -5.01 and the “Perp (PERP, TP53 apoptosis effector) regulated gene, Si162 vs Ktr FC” value (GammaA3) was 6.09. The “Pik3ca (phosphoinositide-3-kinase, catalytic, alpha polypeptide) regulated gene, Si162 vs Ktr FC” value (GammaA3) was 1.27, the “Plcg2 (phospholipase C, gamma 2) regulated gene, Si162 vs Ktr FC” value (GammaA3) was 1.36 and the “Plk1 (polo-like kinase 1 (Drosophila)) regulated gene, Si162 vs Ktr FC” value (GammaA3) was -3.17. The “Pmaip1 (phorbol-12-myristate-13-acetate-induced protein 1 (Noxa)) regulated gene, Si162 vs Ktr FC” value (GammaA3) was 1.94, the “Ptk2 (PTK2 protein tyrosine kinase 2 (FAK)) regulated gene, Si162 vs Ktr FC” value (GammaA3) was 1.99 and the “Rock1 (Rho-associated, coiled-coil containing protein kinase 1) regulated gene, Si162 vs Ktr FC” value (GammaA3) was 1.14. For the same molecule, the “Spp1 (secreted phosphoprotein 1) regulated gene, Si162 vs Ktr FC” value (GammaA3) was 1.01, the “Srf (serum response factor) regulated gene, Si162 vs Ktr FC” value (GammaA3) was -1.12 and the “Tec (tec protein tyrosine kinase) regulated gene, Si162 vs Ktr FC” value (GammaA3) was 3.51. For the same molecule, the “Tgfb2 (transforming growth factor, beta 2) regulated gene, Si162 vs Ktr FC” value (GammaA3) was -1.69, the “Tnc (tenascin C) regulated gene, Si162 vs Ktr FC” value (GammaA3) was -1.32 and the “Zyx (zyxin) regulated gene, Si162 vs Ktr FC” value (GammaA3) was -1.59. The “Significantly regulated genes, total (number)” value (GammaA3; IC50 concentration, 96 h) was “more than 3500”, the “Significantly differentially regulated genes, downregulated (number)” value (GammaA3; [1]) was 1139 and the “Significantly differentially regulated genes, upregulated (number)” value (GammaA3; [1]) was 2453. For the same molecule, the “Actg2 (actin, gamma 2, smooth muscle, enteric) regulated gene, Si162 vs Ktr FC” value (A2C12) was -4.94, the “Ccl5 (chemokine (C-C motif) ligand 5) regulated gene, Si162 vs Ktr FC” value (A2C12) was 2.52 and the “Ccna2 (cyclin A2) regulated gene, Si162 vs Ktr FC” value (A2C12) was -4.48. For the same molecule, the “Ccnb2 (cyclin B2) regulated gene, Si162 vs Ktr FC” value (A2C12) was -4.51, the “Cenpa (centromere protein A) regulated gene, Si162 vs Ktr FC” value (A2C12) was -4.34 and the “Ctsb (cathepsin B) regulated gene, Si162 vs Ktr FC” value (A2C12) was 1.13. For the same molecule, the “Cxcl12 (chemokine (C-X-C motif) ligand 12) regulated gene, Si162 vs Ktr FC” value (A2C12) was -1.05, the “Errfi1 (ERBB receptor feedback inhibitor 1) regulated gene, Si162 vs Ktr FC” value (A2C12) was -4.38 and the “Gadd45a (growth arrest and DNA-damage-inducible, alpha) regulated gene, Si162 vs Ktr FC” value (A2C12) was 1.40. For the same molecule, the “Itga5 (integrin, alpha 5 (fibronectin receptor, alpha polypeptide)) regulated gene, Si162 vs Ktr FC” value (A2C12) was -4.81, the “Mdm2 (Mdm2 p53 binding protein homolog (mouse)) regulated gene, Si162 vs Ktr FC” value (A2C12) was 1.88 and the “Mmp3 (matrix metallopeptidase 3 (stromelysin 1, progelatinase)) regulated gene, Si162 vs Ktr FC” value (A2C12) was 3.28. For the same molecule, the “Mmp13 (matrix metallopeptidase 13 (collagenase 3)) regulated gene, Si162 vs Ktr FC” value (A2C12) was 3.90, the “Nfib (nuclear factor I/B) regulated gene, Si162 vs Ktr FC” value (A2C12) was -4.56 and the “Ogn (osteoglycin) regulated gene, Si162 vs Ktr FC” value (A2C12) was -5.77. For the same molecule, the “Pdgfrb (platelet-derived growth factor receptor, beta polypeptide) regulated gene, Si162 vs Ktr FC” value (A2C12) was -4.68, the “Plk1 (polo-like kinase 1 (Drosophila)) regulated gene, Si162 vs Ktr FC” value (A2C12) was -4.48 and the “Ptn (pleiotrophin) regulated gene, Si162 vs Ktr FC” value (A2C12) was -4.92. For the same molecule, the “Sfrp1 (secreted frizzled-related protein 1) regulated gene, Si162 vs Ktr FC” value (A2C12) was 1.12, the “Spp1 (secreted phosphoprotein 1) regulated gene, Si162 vs Ktr FC” value (A2C12) was 1.21 and the “Srf (serum response factor) regulated gene, Si162 vs Ktr FC” value (A2C12) was -4.68. For the same molecule, the “Tgfb1i1 (transforming growth factor beta 1 induced transcript 1) regulated gene, Si162 vs Ktr FC” value (A2C12) was -4.59, the “Tgfb3 (transforming growth factor, beta 3) regulated gene, Si162 vs Ktr FC” value (A2C12) was -4.49 and the “Tlr4 (toll-like receptor 4) regulated gene, Si162 vs Ktr FC” value (A2C12) was 1.09. For the same molecule, the “Tnc (tenascin C) regulated gene, Si162 vs Ktr FC” value (A2C12) was -5.20, the “Tp53 (tumor protein p53) regulated gene, Si162 vs Ktr FC” value (A2C12) was -4.50 and the “Zyx (zyxin) regulated gene, Si162 vs Ktr FC” value (A2C12) was -5.47. The “Significantly regulated genes, total (number)” value (A2C12; IC50 concentration, 96 h) was > 500, the “Significantly differentially regulated genes, downregulated (number)” value (A2C12; [1]) was 212 and the “Significantly differentially regulated genes, upregulated (number)” value (A2C12; [1]) was 357. For the same molecule, the “Change of caspase-3/7 activity in all cell lines” value (all tested cell lines) was “increased”.
